Source: PubChem BioAssay AID686974 (The Scripps Research Institute Molecular Screening Center, 2013)
Activity calls are given as the source filed them.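 How the source made its calls: active means client protein degradation above 50% for Her2 or AKT on Western blot; inactive means client protein degradation below 10%.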

Columns and labels:
[1] = target: RAC-alpha serine/threonine-protein kinase (Homo sapiens) (UniProt P31749); assay: HSP90 client depletion in MCF7 cells – cell-based, Western blot, mechanism study, late-stage follow-up (AID 686974); conditions: Her2/AKT client degradation, 24 h, AKT, active compounds read high
[2] = target: Receptor tyrosine-protein kinase erbB-2 (Homo sapiens) (UniProt P04626); assay: as above; conditions: Her2/AKT client degradation, 24 h, active compounds read high
Sequence of Receptor tyrosine-protein kinase erbB-2 (Homo sapiens) (P04626 whole entry, looked up): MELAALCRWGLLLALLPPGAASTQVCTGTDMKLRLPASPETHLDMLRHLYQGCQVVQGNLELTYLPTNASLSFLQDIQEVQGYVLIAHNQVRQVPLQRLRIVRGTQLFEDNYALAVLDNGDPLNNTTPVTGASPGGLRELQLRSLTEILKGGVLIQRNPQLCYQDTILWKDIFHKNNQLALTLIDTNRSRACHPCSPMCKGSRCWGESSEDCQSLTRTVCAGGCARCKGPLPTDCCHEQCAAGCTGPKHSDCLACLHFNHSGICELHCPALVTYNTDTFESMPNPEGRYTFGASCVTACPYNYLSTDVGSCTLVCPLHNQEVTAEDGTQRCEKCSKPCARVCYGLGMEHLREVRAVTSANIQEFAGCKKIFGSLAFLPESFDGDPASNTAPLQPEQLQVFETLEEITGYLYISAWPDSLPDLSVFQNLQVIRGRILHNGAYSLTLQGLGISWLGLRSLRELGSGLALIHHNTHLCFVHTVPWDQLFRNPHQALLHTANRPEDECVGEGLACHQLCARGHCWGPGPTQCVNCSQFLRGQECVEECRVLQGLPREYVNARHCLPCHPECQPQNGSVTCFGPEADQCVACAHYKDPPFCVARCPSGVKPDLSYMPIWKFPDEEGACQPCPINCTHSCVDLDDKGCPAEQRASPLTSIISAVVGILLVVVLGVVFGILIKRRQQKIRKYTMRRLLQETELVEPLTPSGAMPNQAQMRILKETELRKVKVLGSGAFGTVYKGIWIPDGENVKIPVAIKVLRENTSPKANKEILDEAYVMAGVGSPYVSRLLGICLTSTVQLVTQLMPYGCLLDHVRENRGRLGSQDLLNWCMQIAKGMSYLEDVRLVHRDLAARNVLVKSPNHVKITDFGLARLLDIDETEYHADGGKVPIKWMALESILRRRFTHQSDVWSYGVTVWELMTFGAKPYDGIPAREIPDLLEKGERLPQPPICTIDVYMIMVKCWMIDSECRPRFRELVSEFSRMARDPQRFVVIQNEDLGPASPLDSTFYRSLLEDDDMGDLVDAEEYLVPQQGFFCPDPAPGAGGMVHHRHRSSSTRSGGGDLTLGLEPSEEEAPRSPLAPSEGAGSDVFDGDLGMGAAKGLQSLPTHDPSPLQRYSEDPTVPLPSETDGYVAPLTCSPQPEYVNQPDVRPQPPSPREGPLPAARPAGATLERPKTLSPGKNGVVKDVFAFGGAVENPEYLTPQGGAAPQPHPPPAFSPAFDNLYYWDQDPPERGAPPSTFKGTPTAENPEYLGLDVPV

Sequence of RAC-alpha serine/threonine-protein kinase (Homo sapiens) (P31749 whole entry, looked up): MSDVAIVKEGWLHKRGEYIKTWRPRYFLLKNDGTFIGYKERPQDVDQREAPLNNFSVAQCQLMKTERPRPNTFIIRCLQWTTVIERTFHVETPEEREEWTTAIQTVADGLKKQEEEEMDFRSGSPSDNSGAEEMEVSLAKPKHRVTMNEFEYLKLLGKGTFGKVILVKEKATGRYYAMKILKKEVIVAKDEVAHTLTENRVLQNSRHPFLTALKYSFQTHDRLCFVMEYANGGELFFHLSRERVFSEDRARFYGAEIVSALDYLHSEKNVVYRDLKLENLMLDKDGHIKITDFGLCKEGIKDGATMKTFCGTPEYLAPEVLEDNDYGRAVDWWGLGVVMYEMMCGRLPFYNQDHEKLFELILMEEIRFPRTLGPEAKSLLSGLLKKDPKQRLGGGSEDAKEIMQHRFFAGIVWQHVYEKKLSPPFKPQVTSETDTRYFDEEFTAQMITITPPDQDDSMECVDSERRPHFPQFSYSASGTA

For O=C(NCc1cccnc1)c1coc(=O)c(Br)c1, the client protein degradation ([1]; high dose (five times the growth IC50) 17.5 µM, low dose (half the growth IC50) 1.8 µM) was < 10% (inactive) and the client protein degradation ([2]; Her2, high dose (five times the growth IC50) 17.5 µM, low dose (half the growth IC50) 1.8 µM) was greater than 50%.

For CC(C)CNC(=O)c1coc(=O)c(Br)c1, the client protein degradation ([1]; high dose (five times the growth IC50) 37.5 µM, low dose (half the growth IC50) 3.8 µM) was < 10% (inactive) and the client protein degradation ([2]; Her2, high dose (five times the growth IC50) 37.5 µM, low dose (half the growth IC50) 3.8 µM) was greater than 50%.

For COc1ccc(NC(=O)c2ccc(NC(=O)c3coc(=O)c(Br)c3)cc2)cc1, the client protein degradation ([1]; high dose (five times the growth IC50) 60.5 µM, low dose (half the growth IC50) 6.1 µM) was < 10% (inactive) and the client protein degradation ([2]; Her2, high dose (five times the growth IC50) 60.5 µM, low dose (half the growth IC50) 6.1 µM) was < 10% (inactive).

O=C(NCCc1ccc(F)cc1)c1coc(=O)c(Br)c1 was tested, and the client protein degradation ([1]; high dose (five times the growth IC50) 10.5 µM, low dose (half the growth IC50) 1.1 µM) was < 10% (inactive) and the client protein degradation ([2]; Her2, high dose (five times the growth IC50) 10.5 µM, low dose (half the growth IC50) 1.1 µM) was greater than 50%.

O=C(Nc1ccccc1I)c1coc(=O)c(Br)c1 gave a client protein degradation ([1]; high dose (five times the growth IC50) 147 µM, low dose (half the growth IC50) 14.7 µM) greater than 50% and a client protein degradation ([2]; Her2, high dose (five times the growth IC50) 147 µM, low dose (half the growth IC50) 14.7 µM) greater than 50%.

For CC(=O)c1ccc(NC(=O)c2coc(=O)c(Br)c2)cc1, the client protein degradation ([1]; high dose (five times the growth IC50) 53.5 µM, low dose (half the growth IC50) 5.4 µM) was < 10% (inactive) and the client protein degradation ([2]; Her2, high dose (five times the growth IC50) 53.5 µM, low dose (half the growth IC50) 5.4 µM) was greater than 50%.

For COC(=O)c1ccc2nc(NC(=O)C3CC3)sc2c1, the client protein degradation ([1]; high dose (five times the growth IC50) 246 µM, low dose (half the growth IC50) 24.6 µM) was < 10% (inactive) and the client protein degradation ([2]; Her2, high dose (five times the growth IC50) 246 µM, low dose (half the growth IC50) 24.6 µM) was < 10% (inactive).

CC(NC(=O)c1coc(=O)c(Br)c1)C1C2CCC3CC(C2)CC31 (configuration not stated) was tested, and the client protein degradation ([1]; high dose (five times the growth IC50) 9 µM, low dose (half the growth IC50) 0.9 µM) was < 10% (inactive) and the client protein degradation ([2]; Her2, high dose (five times the growth IC50) 9 µM, low dose (half the growth IC50) 0.9 µM) was greater than 50%.

In the case of CCCCCCCCOc1ccc(NC(=O)c2coc(=O)c(Br)c2)cc1, the client protein degradation ([1]; high dose (five times the growth IC50) 64.5 µM, low dose (half the growth IC50) 6.5 µM) is reported as < 10% (inactive) and the client protein degradation ([2]; Her2, high dose (five times the growth IC50) 64.5 µM, low dose (half the growth IC50) 6.5 µM) is reported as greater than 50%.

Cc1cccc(NC(=O)c2coc(=O)c(Br)c2)n1 was tested, and the client protein degradation ([1]; high dose (five times the growth IC50) 136.5 µM, low dose (half the growth IC50) 13.7 µM) was < 10% (inactive) and the client protein degradation ([2]; Her2, high dose (five times the growth IC50) 136.5 µM, low dose (half the growth IC50) 13.7 µM) was greater than 50%.

O=C(NCc1ccco1)c1coc(=O)c(Br)c1 gave a client protein degradation ([1]; high dose (five times the growth IC50) 24 µM, low dose (half the growth IC50) 2.4 µM) greater than 50% and a client protein degradation ([2]; Her2, high dose (five times the growth IC50) 24 µM, low dose (half the growth IC50) 2.4 µM) greater than 50%.

For O=C(Nc1ccc(F)cc1)c1coc(=O)c(Br)c1, the client protein degradation ([1]; high dose (five times the growth IC50) 17 µM, low dose (half the growth IC50) 1.7 µM) was greater than 50% and the client protein degradation ([2]; Her2, high dose (five times the growth IC50) 17 µM, low dose (half the growth IC50) 1.7 µM) was greater than 50%.

With Cc1cc(NC(=O)c2coc(=O)c(Br)c2)ccc1C(C)C the client protein degradation ([1]; high dose (five times the growth IC50) 44.5 µM, low dose (half the growth IC50) 4.5 µM) was < 10% (inactive) and the client protein degradation ([2]; Her2, high dose (five times the growth IC50) 44.5 µM, low dose (half the growth IC50) 4.5 µM) was < 10% (inactive).

Work on COc1ccc(NC(=O)c2coc(=O)c(Br)c2)cc1 yielded a client protein degradation ([1]; high dose (five times the growth IC50) 12 µM, low dose (half the growth IC50) 1.2 µM) greater than 50% and a client protein degradation ([2]; Her2, high dose (five times the growth IC50) 12 µM, low dose (half the growth IC50) 1.2 µM) greater than 50%.

CCOc1ccc(-c2nc(CN3CCCCC3CCn3cccn3)c(C)o2)cc1 (configuration not stated) was tested, and the client protein degradation ([1]; high dose (five times the growth IC50) 111 µM, low dose (half the growth IC50) 11.1 µM) was < 10% (inactive) and the client protein degradation ([2]; Her2, high dose (five times the growth IC50) 111 µM, low dose (half the growth IC50) 11.1 µM) was < 10% (inactive).

For CCCCOc1cccc(NC(=O)c2coc(=O)c(Br)c2)c1, the client protein degradation ([1]; high dose (five times the growth IC50) 114 µM, low dose (half the growth IC50) 11.4 µM) was < 10% (inactive) and the client protein degradation ([2]; Her2, high dose (five times the growth IC50) 114 µM, low dose (half the growth IC50) 11.4 µM) was greater than 50%.
